Drawing on a melting point compilation (Tetko et al.; mined from patent text by program, amines drawn as free bases though some values may be those of a salt), this text covers melting point for 91 compounds.

A word on the melting point: it is the temperature, or range, at which the solid turns liquid. The compound `CCC1(c2ccccc2)C(=O)N(CCO)C(=O)N(CCO)C1=O` had a melting point of 107 to 109 °C. Next, `NCc1ccc(C2CCN(c3cc4c(cc3F)c(=O)c(C(=O)O)cn4C3CC3)C2)cc1` (stereo unspecified): 268 to 272 °C; `CCNC(=O)CC1CCN(Cc2cnc3cc(NC(=O)c4ccc(-c5ccc(F)cc5)cc4)c(C)cc3c2)CC1`: 251 °C. Next, `CC(CN(C)C)C(CNC(N)=O)(c1ccccc1)c1ccccc1` (stereo unspecified): 226 to 228 °C; `COc1ccc(-c2cc(=O)c3ccc(OCC4CO4)cc3o2)cc1OC` (stereo unspecified): 148 to 149 °C; `COc1ccc(CN2C(=O)[C@H]3CCC[C@H]3N(C(=O)CN3C(=O)c4ccccc4C3=O)c3ccccc32)cc1` (relative stereo): 237 to 238 °C.

`NS(=O)(=O)c1ccc(-c2[nH]c3ccc(Cl)cc3c2-c2ccccc2)cc1`: the melting point is 297 to 299 °C. The compound `CC1(C)Oc2ccc(-n3c(=O)[nH]c4cccnc43)cc2O1` had a melting point of 223 to 224 °C. `c1ccc(Nc2nc(-c3cn[nH]c3)c(N3CCCCC3)s2)nc1` gave a melting point of 238 °C. Turning to `COC(=O)/C=C(C)/C=C/C(F)=C(C)/C=C/C1(C)C=C(C)OC1C` (stereo unspecified), the melting point is 122 to 126 °C. `CC(C)(C)O[C@H]1C[C@H]2CN(C3=Nc4cc(Cl)ccc4Sc4ccccc43)CCN2C1`: the melting point was 132 to 134 °C. Next, `COc1ccc(C(=O)NC(=O)Nc2ccc3c(c2)NC(=O)/C3=C/c2ccco2)cc1`: 278 to 283 °C; `CS(C)=Nc1nc(OCc2ccccc2)ncc1F`: 125 to 129 °C. Regarding `CCOC(=O)C1=C(N)NC2=C(C(=O)CCC2)C1c1cccc(C#N)c1` (stereo unspecified), the melting point was 262 °C.

On to `NC(=O)C(CCCCCCCCNC(=O)c1ccccc1O)CC(=O)O` (stereo unspecified), for which the melting point was 123 to 125 °C. The same measure for `COc1cc(Sc2ccccc2CO)ccc1Cl`: 78 to 80 °C; for `OC1(CNc2c(Br)cnc3ccccc23)CCCCC1`: 130 to 132 °C. Compound `Cc1c(CC(=O)NCCO)cc(-c2ccc(S(C)(=O)=O)cc2)n1-c1ccc(F)cc1` showed a melting point of 99 °C. `C=CCOc1ccccc1C=NNC(=N)N`: the melting point turned out to be 124 °C.

With `COC(=O)C1Cc2c(n(C)c3ccccc23)CN1C(=S)SCc1cccs1` (stereo unspecified), the melting point is 139 to 140 °C.

For the compound `CC1=C(C)C(=O)N(C2CCC(O)CC2)C1=O` (stereo unspecified), the melting point is 109 to 111 °C. Compound `COc1ncccc1OCC1(c2onc(-c3ccc(O)cc3)c2-c2ccccc2)CC1` displayed a melting point of 189 to 190 °C.

`COC(=O)C(=O)c1ccccc1COc1ccc(-c2ccccc2)cc1` yielded a melting point of 106 to 107 °C.

`C[C@@H](N)[C@](O)(Cn1cncn1)c1ccc(F)cc1F` yielded a melting point of 156 to 157 °C. The same measure for `CN1CCN(c2cccc3c2C[C@H](NC(=O)c2ccc(N4CCN(CCO)CC4)cc2)CO3)CC1`: 211 to 212 °C. As to `CCCc1cc2c(cc1C=NO)OCO2`, the melting point was 83 °C. Turning to `O=C(O)Cc1cccc(C(=O)c2ccc(O)cc2)c1`, the melting point was in the range of 147 to 149 °C. The same measure for `CN(C)c1ccc2cc(Cl)cnc2c1C#N`: 174 °C; for `CCCCNS(=O)(=O)CC(O)(CCCC)C(O)C(N)CC1CCCCC1` (stereo unspecified): 164 to 165 °C. Take `COC(=O)Cc1c(C(=O)OC)ccn1CCCl`: the melting point lay within 110 to 111 °C.

On to `C#CCN1C(=O)c2cccc3cccc(c23)C1=O`, for which the melting point lay within 235 to 237 °C. Compound `COc1ccc2cc(C#CC(C)(C)O)ccc2c1` showed a melting point of 118 to 119 °C. Regarding `Cc1cccc(-c2[nH]c(C(C)C)nc2-c2cccc(-c3cccc(NS(C)(=O)=O)c3)c2)n1`, the melting point lay within 108 to 112 °C. Consider `COc1ccc(C(N)=O)c(OC)c1-c1ccc(C[C@H](NC(=O)c2c(Cl)cc(NC(N)=O)cc2Cl)C(=O)O)cc1`, for which the melting point lay within 217 to 219 °C. Next, `COc1ccc2nccc(CCC[C@@H]3CCN(CC#Cc4ccccc4F)C[C@@H]3C(=O)O)c2c1`: 154 °C; `COc1ccc(C(O)c2ccccn2)cc1OC` (stereo unspecified): 92 to 94 °C. Next, `O=C(Cn1c(-c2ccc(Cl)cc2)nc2cccnc21)Nc1ccccc1`: 240 to 242 °C; `Nc1ccn2c(=O)c(C(=O)O)ccc2c1`: greater than 250 °C. Next, `N#Cc1ccc(C2NCCS2)cc1` (stereo unspecified): 57 to 58 °C; `CC(C)c1ccc(-c2cc(-c3cccc(C(=O)O)c3)ccn2)cc1`: 247 to 249 °C. `CC(C)c1ccc2c(c1)CCN2C(=O)Nc1cccnc1` showed a melting point of 163 to 165 °C. In turn, `Nc1ccc(-n2cnnc2)cc1C(F)(F)F` returned a melting point of 196 to 198 °C. The same measure for `COC1(OC)SC=C(C)NC1=O`: 86 to 88 °C; for `O=C(O)CCC(=O)C(=O)Nc1ccccc1`: 192 to 193 °C; for `CCC(Oc1ccc(C(C)(C)CC)cc1C(C)(C)CC)C(=O)O` (stereo unspecified): 89 °C.

`CN(C)c1cccc(CC(=O)C(F)(F)c2ccccc2)c1` came in with a melting point of 76 to 77 °C.

As to `CC(C)(C)c1ccc(CN2CCN(Cc3ccc(NS(C)(=O)=O)cc3)C2=O)cc1`, the melting point lay in the range of 166 to 168 °C. For the compound `CN1CCC(=C2c3ccccc3CC(O)c3ccccc32)CC1` (stereo unspecified), the melting point fell in the range of 205 to 206 °C. The same measure for `CC(C)(N=NC(C)(C)C(=O)NC1CCCCC1)C(=O)NC1CCCCC1`: 116 °C. Consider `CC(C)(C)OC(=O)Nc1cc(N2CCC(OC3CCCCO3)CC2)c(-c2ccc(F)cc2)cc1[N+](=O)[O-]` (racemic), for which the melting point lay in the range of 144 to 146 °C.

In turn, `CCCCCCCC/C=C\CCCCCCCCOc1ccc(C(=O)O)o1` came in with a melting point of 93 to 96 °C. In the case of `O=C(Nc1ccc2ccc(Cl)nc2n1)c1ccc2ccccc2n1`, the melting point was 260 °C.

As to `CCc1cc(S)n2nccc2n1`, the melting point fell in the range of 178 to 180 °C. `N#CNC1NN=C(c2ccc3ccccc3c2)S1` (stereo unspecified) came in with a melting point greater than 260 °C. The same measure for `CCN(CC)c1cc(F)cc2nc3n(c12)CCCN3c1ccc(Cl)cc1Cl`: 142 to 145 °C; for `Cc1c(-c2ccccc2)n(-c2c(F)cccc2F)c(-c2ccccc2Cl)cc1=O`: 213 to 215 °C; for `CCc1c(CC#N)ccc(OCc2ccccc2)c1OCc1ccccc1`: 44 to 47.5 °C. Next, `Nc1nc(N2CCCC2)c2nc[nH]c2n1`: 265 °C.

Regarding `CCOC(=O)c1cccc(CCC(CO)n2cnc(C(N)=O)c2)c1` (stereo unspecified), the melting point was in the range of 92 to 95 °C.

In turn, `O=C(C1CCc2nc[nH]c2C1)N1CCc2ccccc21` (stereo unspecified) yielded a melting point of 175 to 178 °C. Take `Cc1ccc(/C=C/c2ccc(Cl)cc2[N+](=O)[O-])c([N+](=O)[O-])c1`: the melting point came to 230 °C.

As to `CC(C)n1nc(-c2sc(C(=O)NCc3ccncc3)nc2-c2ccccc2)ccc1=O`, the melting point is 192 to 193 °C. The same measure for `CCCCCCCCc1ccc(N(c2ccc(CCCCCCCC)cc2)C2(c3ccc(N(C)C)cc3C)OC(=O)c3ccccc32)cc1` (stereo unspecified): 172 to 174 °C; for `CCCCCCCCCCCCCCOc1cc(O)cc(C(=O)OC)c1`: 92 to 94 °C. Compound `CCCCn1ccc(C=CC(=O)O)cc1=O` registered a melting point of 131 to 134 °C. Next, `CCOc1ccc2c(c1)C(Cl)Cc1ccc(F)cc1S2` (stereo unspecified): 110 to 111 °C; `COc1ccc(-c2ccc3c(c2)c(C)c(-c2ccccc2)n3Cc2ccccc2)cc1`: 117 to 122 °C; `O=C(Nc1ccc(F)cc1)Nn1cnc2ccccc2c1=O`: 237 to 238 °C. Next, `CC(C)(C)c1cc2c(c(C(C)(C)C)c1)OC(=O)C2c1ccc2c(c1)-c1ccccc1C2` (stereo unspecified): 140 to 153 °C; `CC(C)(C)OC(=O)n1ncc2ccc(NC(=O)c3ccccc3O)cc21`: 155 to 156 °C; `COc1cc(/C=C/C(=O)Nc2ccccc2C(=O)O)ccc1OCCN1CCOCC1`: 195 to 201 °C.

`CNC(=O)Nc1ccc(F)cc1F` gave a melting point of 182 to 183 °C. Next, `O=c1c(-c2nc[nH]n2)coc2ccccc12`: 160 °C; `CC(=O)OC1SCC2C1N(Cc1ccccc1)C(=O)N2Cc1ccccc1` (stereo unspecified): 72 to 74 °C. The same measure for `Cc1c(NC(=O)CC(C)(C)C)cc2c(c1C)OC(C)(C)C2(O)c1cccc(C(C)O)c1` (stereo unspecified): 206 to 207 °C; for `CN(C)c1ncc([N+](=O)[O-])cc1Cl`: 111 to 113 °C.

In turn, `N#Cc1ccc2c(c1)N=Cc1ccccc1O2` yielded a melting point of 158 to 159 °C. Next, `COc1ccccc1-c1ccc(S(=O)(=O)Nc2onc(C)c2Br)s1`: 114 to 117 °C; `CCCCCCCCCCCCCCCCCCS(=O)(=O)Nc1ccc(O)cc1`: 142 °C; `CC(C)OC(=O)c1cc(-n2c(N)c(C#N)cnc2=O)c(F)cc1Cl`: 212 to 213 °C. The compound `CCCCCNC(=O)Nc1ccccc1C(=O)NC1CCN(C(c2ccccc2)c2ccccc2)CC1` returned a melting point of 199 to 201 °C.

The compound `CC(C)(C)OC(=O)NC(Cc1ccc(-c2cccc(CNCC(=O)c3ccccc3)c2)cc1)C(=O)O` (stereo unspecified) had a melting point of 80 °C. Compound `CC(C)(C)OC(=O)NCC1(O)CCNCC1` yielded a melting point of 136 to 138 °C. Turning to `OC1(c2ccccc2)CCN(CCCC2COc3ccccc3O2)CC1` (stereo unspecified), the melting point was 95 to 98 °C. On to `CC(=S)NCC1CN(c2ccc(N3CCSCC3)c(F)c2)C(=O)O1` (stereo unspecified), for which the melting point fell in the range of 155 to 156 °C. `O=C(Nc1ccc2ccc(-c3ccccc3)nc2n1)c1cccc(Cl)c1` registered a melting point of 175 °C. The same measure for `COc1ccc2cc([C@H](C)C(=O)OCCNC(=O)c3cccc(CO[N+](=O)[O-])c3)ccc2c1`: 92 to 94 °C; for `Cc1c(C#N)c2c(c(C)c1NC(=O)CC(C)(C)C)C(c1ccc(C(C)C)cc1)CO2` (stereo unspecified): 135 to 136 °C.

Turning to `OC1CCCc2nc3ccccc3c(NCc3ccccc3)c21` (stereo unspecified), the melting point turned out to be 159 °C. In turn, `Cc1ccc2c(c1)c1cc(-c3ccc(O)cc3)c(=O)n(C)c1n2C` came in with a melting point greater than 280 °C. Next, `FC(F)(F)c1cc(-c2ccc(Cl)cc2)nc(-n2cnc(I)c2)n1`: 258 °C.
